What was measured:
[1] = system: pAKT(T308) (phosphorylated at threonine 308), PC3 cells; experiment: In-cell Western assay, pAKT(T308) in PC3 cells; assay type: cell-based; conditions: Homo sapiens, PC-3, In-cell Western
Procedure: Cells from human prostate cancer cell line PC3 (American Type Culture Collection (ATCC), Manassas, Va. 20108 USA) were seeded at an optimal density of 22,000 cell/well in 96-well plates containing Ham's F12K medium (90 μL) and incubated overnight. The compound dilutions were carried out in 100% DMSO followed by a dilution in the medium. Test compounds were added in serial dilutions to the wells and incubated for 2 h. The cells were washed and fixed with 4% paraformaldehyde. After incubation at room temperature for 1 h in the dark, blocking was done for 2 h at room temperature. Primary antibodies for phosphorylated (p) AKT(5473) (phosphorylated at serine 473), pAKT(T308) (phosphorylated at threonine 308) and for pS6RP(S235/236) (phosphorylated at serine 235/236) (commercially available from Cell Signaling Technology®, whose protocol was followed for the in-cell western assay, were diluted to the required concentration and added to the corresponding wells followed by overnight incubation at 4° C. Eu-labeled rabbit (PE) (Perkin-Elmer USA catalog #AD0106) secondary antibody was added and incubated for 2 h at room temperature. Delfia® enhancement solution (cat #1244-105, Perkin Elmer USA) was subsequently added to the plate before taking the reading at 615 nm with excitation wavelength of 340 nm, after which 0.5 μg/mL of Hoechst® 33258 dye (Catalog #86140-5, Sigma) was added to the plate and fluorescence emission was read at 460 nm with 355 nm excitation, to evaluate the correction factor. IC50 values were calculated using a sigmoidal dose-response curve fit in GraphPad Prism® v5 software.

pS6RP in PC3 tumor = experiment: In vivo PK/PD study, PC3 tumor bearing mice, pS6RP; conditions: Mus musculus
Procedure: PC3 cells were cultured at 37° C. in a 5% CO2 incubator using Hams F12 K medium. Ten million (10^7) cells were injected subcutaneously to the right flank region of athymic male mice (Harlan, age: 6-7 weeks, weight: about 20 g). Tumor bearing mice were randomized when the tumor volume reached about 250 mm^3 and three mice were used per each time point. Test compounds of formula (I) were formulated in 40% HPCD in 1×PBS, pH 7.4 and dosed orally at 50 mg/kg single dose (dose volume−10 mL/kg). Plasma and tumor samples were collected at 0 (vehicle control animals), 1, 4 and 24 hours post dosing. Blood was drawn (retro orbital) to a tube containing 0.2% EDTA for plasma collection. The tumor was excised from the mouse and immediately frozen in liquid nitrogen for PD analysis. Tumor and plasma drug concentrations were measured for PK analysis using LC-MS.
Snap frozen tumor samples were pulverized in a mortar (Belart) containing liquid nitrogen and tumor powder was stored at −80° C. until analysis. Pre coated ELISA kits (Cell Signaling Technology; pAKT(T308), CST#7135; pAKT(5473), CST#7134 and pS6RP, CST#7205) were used for PD analysis. Tumor powder was transferred to Eppendorf® tubes and lysis buffer (1 mL) was added to the powder. Protease and phosphatase inhibitors (SIGMA) and phenylmethanesulfonylfluoride (PMSF) were added to tumor powder and mixed by vortexing followed by sonication (15 sec). Samples were kept on an ice bath for 30 min. Supernatant was separated after centrifugation at 10,000 rpm for 20 min at 4° C. Supernatant was re-centrifuged and fresh supernatant was aliquoted to different tubes. Total protein was estimated using a BCA kit (Thermo Scientific) and 50 μg total protein was loaded to each well. ELISA analysis was carried out as per manufacturer's instructions. The detection for pAKT was based on chemiluminescence and pS6RP was based on absorbance. Qualitative assessments of the suppression of pAKT(T308), pAKT(5473), and pS6RP were also carried out by standard Western blot analyses.
For example, the compound of Example 1, at 50 mg/kg po, caused about 50% inhibition of pAkt(5473) at 1 and 4 hours and >50% inhibition of pS6RP at 1, 4 and 24 hours. Also, the compound of Example 2, at 50 mg/kg po, caused about 25-30% inhibition of pAkt(5473) at 4 and 24 hours and >50% inhibition of pS6RP at 1, 4 and 24 hours. The compound of example 51, at 30 mg/kg po, caused >50% inhibition of pS6RP at 2, 4 and 24 hours. Also, the compounds of examples 133, 146, 147, and 228, at 50 mg/kg po, each caused >50% inhibition of pS6RP at 3 and 8 hours.

[2] = 50 mg/kg po single dose, at 1, 4 and 24 hours

Row | IC50 [1] [nM] | Structure (SMILES) | inhibition at 50 mg/kg (pS6RP in PC3 tumor; [2]) [%] | inhibition at 30 mg/kg (pS6RP in PC3 tumor; 30 mg/kg po, at 2, 4 and 24 hours) [%] | inhibition at 50 mg/kg (pS6RP in PC3 tumor; 50 mg/kg po, at 3 and 8 hours) [%]
1 | 100 to 500 | Cc1ccc(-c2ccc3c(N4CCOCC4)nc(-c4ccc(NC(=O)Nc5ccc(C(=O)N(C)C)cc5)cc4)nc3c2)o1 [Example 2, N,N-Dimethyl-4-(3-{4-[7-(5-methyl-furan-2-yl)-4-morpholin-4-yl-quinazolin-2-yl]-phenyl}-ureido)-benzamide] | > 50 |  | 
2 |  | CN(C)C(=O)c1ccc(NC(=O)Nc2ccc(-c3nc(N4CCOCC4)c4ccc(-c5ccco5)cc4n3)cc2)cc1 [Example 51, 4-{3-[4-(7-furan-2-yl-4-morpholin-4-yl-quinazolin-2-yl)-phenyl]-ureido}-N,N-dimethyl-benzamide] |  | > 50 | 
3 | < 100 | CN(C)C(=O)c1ccc(NC(=O)Nc2ccc(-c3nc(N4CCOCC4)c4ccc(-c5cncnc5)cc4n3)cc2)c(F)c1 [Example 133, 3-fluoro-N,N-dimethyl-4-(3-(4-(4-morpholino-7-(pyrimidin-5-yl)quinazolin-2-yl)phenyl)ureido)-benzamide] |  |  | > 50
4 | < 100 | CN(C)C(=O)c1ccc(NC(=O)Nc2ccc(-c3nc(N4CCOCC4)c4ccc(-c5cccnc5F)cc4n3)cc2)c(F)c1 [Example 146, 3-fluoro-4-(3-(4-(7-(2-fluoropyridin-3-yl)-4-morpholino-quinazolin-2-yl)phenyl)ureido)-N,N-dimethyl-benzamide] |  |  | > 50
5 | < 100 | CN(C)C(=O)c1ccc(NC(=O)Nc2ccc(-c3nc(N4CCOCC4)c4ccc(-c5cccnc5)cc4n3)cc2)c(F)c1 [Example 152, 3-fluoro-N,N-dimethyl-4-(3-(4-(4-morpholino-7-(pyridin-3-yl)quinazolin-2-yl)phenyl)ureido)-benzamide] |  |  | 

Row | Structure (SMILES) | IC50 [1] [nM] | inhibition at 50 mg/kg (pS6RP in PC3 tumor; [2]) [%] | inhibition at 30 mg/kg (pS6RP in PC3 tumor; 30 mg/kg po, at 2, 4 and 24 hours) [%] | inhibition at 50 mg/kg (pS6RP in PC3 tumor; 50 mg/kg po, at 3 and 8 hours) [%]
6 | CN(C)C(=O)c1ccc(NC(=O)Nc2ccc(-c3nc(N4CCOCC4)c4ccc(-c5cncnc5)cc4n3)cc2)cc1 [Example 1, N,N-Dimethyl-4-(3-{4-[4-morpholin-4-yl-7-pyrimidin-5-yl-quinazolin-2-yl)-phenyl]-ureido}-benzamide] | 501 to 5000 | > 50 |  | 

— patent US9115092B2, “Substituted quinazoline and pyrido-pyrimidine derivatives” (Asana Biosciences, LLC, priority 2010, dated 2015)
